Laboratory results taken from PMC8752738, “A propolis-derived small molecule ameliorates metabolic syndrome in obese mice by targeting the CREB/CRTC2 transcriptional complex” (Nature Communications, 2022).
“And” between values parts separate entries of the source, which are not always exact repeats. Identical values can stand only once.

Experiment: Glucose, insulin, and pyruvate tolerance tests
Type: in vivo, mouse
Design: AUC of IGTT, Total Area / AUC analysis of ITT, Total Area / AUC of ITT, group mean / AUC of PTT, group mean / IGTT, Mean Diff. APC - VEH / IGTT, group mean (Mean 1, APC): unit not given beside the values
Protocol: After overnight fasting, mice were i.p. injected or treated orally with D-glucose (1–2 g/kg) for glucose-tolerance tests (IGTT or OGTT) or injecting with sodium pyruvate (1–2 g/kg) for pyruvate tolerance tests (PTT). Insulin-tolerance tests (ITT) were performed by i.p. injection of insulin (1 U/kg) 2-h after food removal. […]

[1] = db/db mice, ip APC, ITT 0-120 min
[2] = db/db mice, ip APC, 15 min, n=6
[3] = db/db mice, ip APC, 30 min, n=6
[4] = db/db mice, ip APC, 60 min, n=6
[5] = db/db mice, ip APC, 120 min, n=6
[6] = db/db mice, ip APC, PTT 0-120 min

Structure (SMILES): CC(C)=CCc1cc(C=CC(=O)O)cc(CC=C(C)C)c1O [APC, 3,5-diprenyl-4-hydroxycinnamic acid]
- IGTT, Mean Diff. APC - VEH (db/db mice, 60 min): -166.5
- IGTT, group mean (Mean 1, APC) (db/db mice, 60 min, n=8): 217.8
- IGTT, Mean Diff. APC - VEH (db/db mice, 120 min): -105
- IGTT, group mean (Mean 1, APC) (db/db mice, 120 min, n=8): 171
- AUC of ITT (Total Area), individual mice (db/db mice, ip APC): 528.6 and 524.4 and 533.7 and 561.3 and 514.8 and 472.5
- AUC of ITT in db, difference between means (APC - VEH) ± SEM (db/db mice, ip APC): -215.2 ± 51.46
- AUC of PTT, individual mice (db/db mice, ip APC): 534.6 and 662.4 and 481.5 and 659.7 and 691.6 and 494.5
- IGTT blood glucose (db/db mice, ip APC, 0 mins, individual mouse, n=8): 153 mg/dL and 144 mg/dL and 142.2 mg/dL and 138.6 mg/dL and 176.4 mg/dL and 127.8 mg/dL and 140.4 mg/dL and 113.4 mg/dL
- IGTT blood glucose (db/db mice, ip APC, 15 mins, individual mouse, n=8): 477 mg/dL and 363.6 mg/dL and 334.8 mg/dL and 511.2 mg/dL and 419.4 mg/dL and 423 mg/dL and 480.6 mg/dL and 525.6 mg/dL
- IGTT blood glucose (db/db mice, ip APC, 30 mins, individual mouse, n=8): 262.8 mg/dL and 450 mg/dL and 293.4 mg/dL and 275.4 mg/dL and 228.4 mg/dL and 228.6 mg/dL and 124.2 mg/dL and 385.2 mg/dL
- IGTT blood glucose (db/db mice, ip APC, 60 mins, individual mouse, n=8): 205.2 mg/dL and 233.8 mg/dL and 221.4 mg/dL and 237.6 mg/dL and 329.4 mg/dL and 163.8 mg/dL and 135 mg/dL and 216 mg/dL
- IGTT blood glucose (db/db mice, ip APC, 120 mins, individual mouse, n=8): 176.4 mg/dL and 270 mg/dL and 153 mg/dL and 138.6 mg/dL and 250.2 mg/dL and 133.2 mg/dL and 99 mg/dL and 147.6 mg/dL
- ITT blood glucose, difference between column means (CT vs APC) [1]: 51.32
- ITT blood glucose, mean over all time points (Mean of APC) [1]: 134.7
- ITT blood glucose, Mean Diff. APC - CT (db/db mice, ip APC, 0 min): -52.47
- ITT blood glucose, individual mice (db/db mice, ip APC, 0 min): 178.2 mg/dL and 172.8 mg/dL and 156.6 mg/dL and 194.4 mg/dL and 190.4 mg/dL and 192.6 mg/dL
- ITT blood glucose, group mean (Mean 1, APC) (db/db mice, ip APC, 0 min, n=6): 180.8
- ITT blood glucose, Mean Diff. APC - CT (db/db mice, ip APC, 15 min): -63.57
- ITT blood glucose, individual mice (db/db mice, ip APC, 15 min): 137.6 mg/dL and 129.6 mg/dL and 153 mg/dL and 133 mg/dL and 138.3 mg/dL and 126 mg/dL
- ITT blood glucose, group mean (Mean 1, APC) [2]: 136.3
- ITT blood glucose, Mean Diff. APC - CT (db/db mice, ip APC, 30 min): -56.08
- ITT blood glucose, individual mice (db/db mice, ip APC, 30 min): 101.2 mg/dL and 129.6 mg/dL and 115.2 mg/dL and 124.2 mg/dL and 128.4 mg/dL and 111.6 mg/dL
- ITT blood glucose, group mean (Mean 1, APC) [3]: 118.4
- ITT blood glucose, Mean Diff. APC - CT (db/db mice, ip APC, 60 min): -54.15
- ITT blood glucose, individual mice (db/db mice, ip APC, 60 min): 120.6 mg/dL and 115 mg/dL and 129.6 mg/dL and 138.6 mg/dL and 105.2 mg/dL and 91.8 mg/dL
- ITT blood glucose, group mean (Mean 1, APC) [4]: 116.8
- ITT blood glucose, Mean Diff. APC - CT (db/db mice, ip APC, 120 min): -30.35
- ITT blood glucose, individual mice (db/db mice, ip APC, 120 min): 160.2 mg/dL and 127.6 mg/dL and 115.2 mg/dL and 136.6 mg/dL and 95.3 mg/dL and 93.6 mg/dL
- ITT blood glucose, group mean (Mean 1, APC) [5]: 121.4
- PTT blood glucose, difference between column means (VEH vs APC) [6]: 95.48
- PTT blood glucose, mean over all time points (Mean of APC) [6]: 143.6
- PTT blood glucose, Mean Diff. APC - VEH (db/db mice, ip APC, 0 min): -59.27
- PTT blood glucose, individual mice (db/db mice, ip APC, 0 min): 156.6 mg/dL and 129.6 mg/dL and 131.4 mg/dL and 153 mg/dL and 147.6 mg/dL and 135.8 mg/dL
- PTT blood glucose, group mean (Mean 1, APC) (db/db mice, ip APC, 0 min, n=6): 142.3
- PTT blood glucose, Mean Diff. APC - VEH (db/db mice, ip APC, 15 min): -65.02
- PTT blood glucose, individual mice (db/db mice, ip APC, 15 min): 142.2 mg/dL and 181.8 mg/dL and 156.6 mg/dL and 169.2 mg/dL and 180.5 mg/dL and 149.4 mg/dL
- PTT blood glucose, group mean (Mean 1, APC) [2]: 163.3
- PTT blood glucose, Mean Diff. APC - VEH (db/db mice, ip APC, 30 min): -106.5
- PTT blood glucose, individual mice (db/db mice, ip APC, 30 min): 135 mg/dL and 194.4 mg/dL and 126 mg/dL and 172.8 mg/dL and 163.7 mg/dL and 142.2 mg/dL
- PTT blood glucose, group mean (Mean 1, APC) [3]: 155.7
- PTT blood glucose, Mean Diff. APC - VEH (db/db mice, ip APC, 60 min): -119.1
- PTT blood glucose, individual mice (db/db mice, ip APC, 60 min): 124.2 mg/dL and 140.4 mg/dL and 99 mg/dL and 169.2 mg/dL and 201.6 mg/dL and 93.6 mg/dL
- PTT blood glucose, group mean (Mean 1, APC) [4]: 138
- PTT blood glucose, Mean Diff. APC - VEH (db/db mice, ip APC, 120 min): -127.5
- PTT blood glucose, individual mice (db/db mice, ip APC, 120 min): 109.8 mg/dl and 162 mg/dl and 68.4 mg/dl and 144 mg/dl (2×) and 82.8 mg/dl
- PTT blood glucose, group mean (Mean 1, APC) [5]: 118.5
- IGTT AUC, Total Area (db/db mice, ip APC, individual mouse, n=8): 1110 and 1254 and 997.2 and 1163 and 1191 and 945.9 and 859.5 and 1257
- AUC of ITT in db, group mean (db/db mice, ip APC, n=6): 522.6
- AUC in PTT, mean of differences (APC - VEH) (db/db mice, ip APC, paired t test, 6 pairs): -383.9
- AUC of IGTT in db/db, group mean (db/db mice, n=8): 1097
- AUC of ITT, group mean (mean of APC group, n=7): 367.6
